Measured values as given in patent EP4635488A1, “PHARMACEUTICAL COMPOSITION FOR PREVENTING OR TREATING BONE DISEASES” (Industry Foundation of Chonnam National University, priority 2022, dated 2024).

Assays:
[1] = tested on: F-actin belts of mature osteoclasts; experiment: F-actin ring immunofluorescence analysis (phalloidin staining); format: cell-based, C57/BL6 mice
Procedure: (§1) Bone resorption analysis was performed by a conventional method. Briefly, BMMs (2 × 10^4 cells/well) were seeded into a coated 48-well plate provided in the kit. After culturing with or without the indicated doses of 25-KR-03 and PMSA-3-Ac until mature osteoclasts were observed, 100 µL supernatant was harvested from each well and placed in a black polypropylene 96-well microplate. Fluorescence intensity was measured using a SpectraMax i3x fluorescence plate reader (excitation wavelength 485 nm; emission wavelength 535 nm). The decalcified pit area was visible under a microscope and calculated using ImageJ software. F-actin rings were visible using a rhodamine-coupled phalloidin staining assay (Thermo Fisher Scientific) as previously described.
(§2) In FIG. 4C, the fluorescence intensity of each group after 6 days was measured at excitation and emission wavelengths of 485 nm and 535 nm, respectively. All experiments were repeated three times.

BMDMs = experiment: Cell viability assay of BMM/BMDMs; format: cell-based, C57/BL6 mice; settings: below 4 µM; 48 hours
Procedure: (§3) Bone marrow cells (BMC) were obtained from 8-week-old female C57/BL6 mice by washing femurs and tibias with α-MEM. BMCs were then cultured overnight in full α-MEM containing 10% FBS, 100 U/mL penicillin, and 100 µg/mL streptomycin. Non-attached cells were collected and cultured with M-CSF (30 ng/ mL) for 3 days, and then the attached cells were used as BMM. All animal experiments were approved by Chonnam National University IACUC (approval number: CNU IACUC-YB-2019-49).
(§4) To generate osteoclasts, BMMs were harvested and cultured in a complete medium containing 30 ng/mL M-CSF and 50 ng/mL RANKL with or without compounds for approximately 4 days to obtain mature osteoclasts. Differentiated osteoclasts were fixed with 4% formalin for 15 minutes, and then the cells were stained using a TRAP staining kit. The spread of osteoclast areas could be observed under the microscope. The viability of BMM (1 × 10^4 cells/well) was assessed in a 96-well plate using a cell viability assay kit as previously described.

NFATc1 = experiment: Western blotting analysis of osteoclast proteins and NFATc1 nuclear translocation; format: cell-based, C57/BL6 mice
Procedure: Total protein was extracted from osteoclasts and processed by a conventional method. To obtain total cell lysates, cells were lysed in ice-cold RIPA buffer for 30 min. After measuring the total protein concentration using the Enhanced BCA Protein Assay Kit, the protein was separated using 8-12% SDS-PAGE and transferred to a polyvinylidene fluoride membrane. Next, the membrane was blocked using 5% skim milk and incubated with a primary antibody (1:2,000 dilution) overnight. After incubation with a secondary antibody (1:2,000 dilution) for 1 hour, the membrane was washed and developed using an enhanced chemiluminescence (ECL) buffer as previously described. Relative protein expression was calculated by densitometric analysis using Image J software.
Specifically, in FIG. 6A, immunoblotting was performed for analysis. Culture was performed with or without 25-KR-03 for the indicated days in induction medium. […] GAPDH/LaminB1 was used as a loading control.

[2] = tested on: human IPSC-derived macrophages; experiment: Human osteoclast differentiation model (TRAP staining / TRAP activity); format: cell-based; settings: 10 days; 50 ng/mL hM-CSF and 100 ng/mL hRANKL
Procedure: However, it is unclear whether 25-KR-03 has an inhibitory effect on human osteoclast differentiation. Accordingly, a human osteoclast differentiation model was established using human IPSC-derived macrophages. Cells were incubated with 50 ng/mL human M-CSF and 100 ng/mL RANKL to induce mature osteoclast formation.
Specifically, in FIG. 7A, the inhibitory effect of 25-KR-03 on human osteoclast differentiation was analyzed through TRAP staining. Human IPSC-derived macrophages were treated with the indicated concentrations of 25-KR-03 for 10 days in the induction medium containing 50 ng/mL hM-CSF and 100 ng/mL hRANKL. After the formation of multinucleated osteoclasts, TRAP staining was performed to visualize the formed osteoclasts.

[3] = tested on: osteoclast-specific genes; experiment: Quantitative real-time PCR of osteoclast-specific genes; format: cell-based, C57/BL6 mice; settings: Acp5, NFATc1, DC-STAMP, ATP6V0d2, MMP9 and Ctsk; 0, 1, 2, and 4 days
Description: Total RNA from BMM was isolated using QIAzol RNA lysis reagent (Qiagen Sciences, Valencia, CA, USA).
Specifically, FIGS. 5A to 5F show the results of measuring the relative mRNA levels of the indicated osteoclast-specific genes using qRT-PCR with or without 25-KR-03 treatment for 0, 1, 2, and 4 days. Black bars represent M-CSF and RANKL treatment groups ("Con") and gray bars correspond to 25-KR-03 treatment groups. Transcript levels were normalized to expression at day 0. All experiments were repeated three times.

[4] = tested on: osteoclast bone resorption; experiment: Bone resorption analysis on fluoresceine amine-labeled calcium phosphate plates; format: cell-based, C57/BL6 mice
Procedure: as §1, §2

RANKL-induced BMM = experiment: In vitro osteoclast formation assay (TRAP staining / TRAP activity); format: cell-based, C57/BL6 mice
Procedure: as §3, §4

[5] = tested on: OVX-induced osteoporosis mouse model; experiment: OVX-induced osteoporosis mouse model (micro-CT, body weight); format: in vivo, C57BL/6 female mice; settings: for prevention of bone loss (Tb.Th and BMD values, micro-CT of femur): 20 mg/kg intraperitoneally once daily for 4 weeks after surgery, compared with the OVX group
Procedure: Specific pathogen-free facilities were used to grow mice. To investigate the effects of 25-KR-03 in vivo, the inventors established an OVX-induced osteoporosis mouse model as previously described. Seven-week-old C57BL/6 female mice were divided into four groups (Sham, OVX, 25-KR-03, and PMSA-3-Ac). Among them, the OVX, 25-KR-03, and PMSA-3-Ac groups underwent OVX surgery.
After a 1-week recovery period, mice were intraperitoneally injected with 25-KR-03 or PMSA-3-Ac (20 mg/kg, dissolved in a mixture of 10 % Tween 80 and 10% DMSO) once daily for 4 weeks. The sham and control (OVX) groups received equal volumes of the mixture of 10 % Tween 80 and 10% DMSO once daily for 4 weeks. Body weights of the mice were measured weekly. When the mice were euthanized, the femurs were isolated and fixed in 4.0% paraformaldehyde for micro-computed tomography (micro-CT) analysis as previously performed.
Micro-CT scanning was performed as in previous studies. The Quantum GX Micro-CT imaging system (PerkinElmer, Hopkinton, MA, USA) was used at the Korea Basic Science Institute (Gwangju, Korea).

[6] = Mus musculus, 1 µM, osteoclast differentiation in RANKL-induced BMM, mean ± SD from at least three experiments, read-out: Inhibition rate (%)

COC(=O)c1cccc(NCC(=O)Nc2ccccc2Sc2ccccc2)c1 [Compound 25-KR-03, Methyl 3-((2-oxo-2-((2-(phenylthio)phenyl)amino)ethyl)amino)benzoate] was tested, and the actin ring formation ([1]; at the indicated doses, RANKL/M-CSF-induced) was “inhibited”, the “osteoclast F-actin belt formation, inhibition compared with control inhibitor” value ([1]; versus PMSA-3-Ac (10 µM)) was “more strongly than PMSA-3-Ac” and the “cell viability of BMDMs” value (BMDMs) was “no significant effect”. The “NFATc1 protein levels in the nucleus” value (NFATc1; BMDMs, 48 hours) was “significantly reduced”, the “NFATc1 protein levels in the cytoplasm” value (NFATc1; BMDMs, 48 hours, not significant) was “slightly increased” and the “protein expression of Ctsk” value (NFATc1; Western blotting) was “significantly inhibited”. The “protein expression of NFATc1, Traf6, c-src, GSK3β and calcineurin A” value (NFATc1; Western blotting, compared to the control group) was “no significant effect”, the “inhibitory effect on human osteoclast differentiation” value [2] was “has bioactivity in both mouse and human cells” and the “relative mRNA expression levels of RANKL-induced osteoclastogenesis-related genes” value [3] was “obviously decreased”. The resorption pit area ([4]; 0.5, 1, and 2 µM, M-CSF and RANKL, 6 days) was “significantly reduced”, the fluorescence intensity ([4]; dose-dependent manner, 6 days, excitation 485 nm, emission 535 nm) was “reduced” and the “bone resorption inhibition compared with control inhibitor” value ([4]; versus PMSA-3-Ac) was “more effective than PMSA-3-Ac”. For the same compound, the “inhibitory effect on osteoclast differentiation” value (RANKL-induced BMM; 2 µM, TRAP staining) was “almost complete inhibition”, the inhibition at 1 µM (RANKL-induced BMM; [6]) was 72.3 ± 6.33% and the inhibition at 2 µM (RANKL-induced BMM; Mus musculus, 2 µM, osteoclast differentiation in RANKL-induced BMM, mean ± SD from at least three experiments, read-out: Inhibition rate (%)) was 99.89 ± 0.04%. For the same compound, the IC50 (RANKL-induced BMM; Mus musculus, Differentiation of BMDM, based on TRAP activity, 0 to 4000 nM) was 323 nM, the “formation of multinucleated mature osteoclasts” value (RANKL-induced BMM; RANKL-induced, concentration range up to 4000 nM) was “completely blocked” and the “prevention of bone loss (Tb.Th and BMD values, micro-CT of femur)” value [5] was “slight but significant prevention of bone loss”. For the same compound, the body weight ([5]; 20 mg/kg intraperitoneally once daily, 4 weeks) was “no significant weight reduction”.

For COC(=O)c1cccc(N(CC(=O)Nc2ccccc2Sc2ccccc2)S(=O)(=O)c2ccc(C)cc2)c1 [Compound 25-KR-26, Methyl 3-((4-methyl-N-(2-oxo-2-((2-(phenylthio)phenyl)amino)ethyl)phenyl)sulfonamido)benzoate], the “Inhibition rate (%)” value (RANKL-induced BMM; 1 µM, osteoclast differentiation in RANKL-induced BMM, mean ± SD from at least three experiments) was 49.09 ± 2.32%.

In the case of O=C(CNc1cccc(C(=O)O)c1)Nc1ccccc1Sc1ccccc1 [Compound 25-KR-27, 3-((2-oxo-2-((2-(phenylthio)phenyl)amino)ethyl)amino)benzoic acid], the inhibition at 1 µM (RANKL-induced BMM; [6]) is reported as 31.8 ± 1.93%.

With CC(=O)c1cccc(N(CC(=O)Nc2ccccc2Sc2ccccc2)S(C)(=O)=O)c1 [PMSA-3-Ac, reference compound] the “prevention of bone loss (Tb.Th and BMD values, micro-CT of femur)” value [5] was “no significant effect”.
